Measured values taken from patent publication US6750228B1, “Aromatic sulfone hydroxamic acid metalloprotease inhibitor” (priority 1997, dated 2004).
Structures can show the parent of a compound that is named as a salt. Where two headings read alike, the source gives them in different places.

Key:
Assay in all cases: biochemical
MMP-1 = molecular target: T1, MMP-1 (Homo sapiens, UniProt P03956); details: read-out: MMP-1 IC50
T1 construct: made in house; host or cells: transfected HT-1080 cells (provided by Dr. Harold Welgus, Washington University)
T1 sequence (P03956 100-469): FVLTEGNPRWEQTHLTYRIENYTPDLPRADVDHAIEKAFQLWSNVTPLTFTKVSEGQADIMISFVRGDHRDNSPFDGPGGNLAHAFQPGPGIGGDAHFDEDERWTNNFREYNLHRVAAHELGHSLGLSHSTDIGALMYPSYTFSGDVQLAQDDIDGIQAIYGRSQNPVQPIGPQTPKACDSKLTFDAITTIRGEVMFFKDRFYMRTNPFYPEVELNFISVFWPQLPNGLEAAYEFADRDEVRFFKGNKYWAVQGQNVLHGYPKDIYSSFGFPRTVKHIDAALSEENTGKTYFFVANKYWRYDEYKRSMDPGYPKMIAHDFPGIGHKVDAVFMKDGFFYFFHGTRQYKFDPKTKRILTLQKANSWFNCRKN
Procedure, shortened: (§1)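 Assay buffer 100 mM Tris-HCl, 100 mM NaCl, 10 mM CaCl2, pH 7.5. Activated MMP + inhibitor, 5 min RT; then methoxycoumarin peptide substrate, 4 μM final. Readout fluorescence; IC50 calculated.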

MMP-2 = molecular target: T2, MMP-2 (Homo sapiens, UniProt P08253); details: read-out: MMP-2 IC50
T2 construct: made in house; provided by Dr. Gregory Goldberg, Washington University
T2 sequence (P08253 110-660): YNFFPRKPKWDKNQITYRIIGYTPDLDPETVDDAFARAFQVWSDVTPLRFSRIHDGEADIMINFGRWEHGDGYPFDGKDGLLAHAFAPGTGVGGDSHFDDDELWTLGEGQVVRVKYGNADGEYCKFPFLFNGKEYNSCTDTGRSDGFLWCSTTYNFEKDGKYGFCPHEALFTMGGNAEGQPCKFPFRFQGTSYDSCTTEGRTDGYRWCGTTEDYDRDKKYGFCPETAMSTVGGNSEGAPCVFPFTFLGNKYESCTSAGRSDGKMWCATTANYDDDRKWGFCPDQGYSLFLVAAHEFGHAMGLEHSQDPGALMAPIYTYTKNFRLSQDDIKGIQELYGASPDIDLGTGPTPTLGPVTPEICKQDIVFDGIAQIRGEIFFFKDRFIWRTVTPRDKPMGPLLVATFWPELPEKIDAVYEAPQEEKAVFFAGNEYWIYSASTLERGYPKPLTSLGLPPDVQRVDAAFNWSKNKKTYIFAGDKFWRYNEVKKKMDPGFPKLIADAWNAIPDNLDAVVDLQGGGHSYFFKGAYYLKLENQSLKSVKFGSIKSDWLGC
Procedure, shortened: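 APMA- or trypsin-activated human MMPs (MMP-1 from transfected HT-1080 cells, MMP-2 from transfected cells) preincubated with inhibitor in 1% DMSO at room temperature, then 4 μM MCA-Pro-Leu-Gly-Leu-Dpa-Ala-Arg-NH2 added in Tris/NaCl/CaCl2 buffer pH 7.5. IC50 from fluorescence reduction versus inhibitor concentration.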

MMP-13 = molecular target: T3, MMP-13 (Homo sapiens, UniProt P45452); details: read-out: MMP-13 IC50
T3 construct: made in house; host or cells: baculovirus / insect cells
Procedure, shortened: as §1

[1] = recombinant human MMP-1, MCA peptide substrate 4 μM, pH 7.5, room temperature
[2] = recombinant human MMP-2, MCA peptide substrate 4 μM, pH 7.5, room temperature
[3] = recombinant human MMP-13, MCA peptide substrate 4 μM, pH 7.5, room temperature

SMILES	IC50 (MMP-1; [1]) [nM]	IC50 (MMP-2; [2]) [nM]	IC50 (MMP-13; [3]) [nM]	IC50 (MMP-1) [nM]	IC50 (MMP-2) [nM]	IC50 (MMP-13) [nM]
O=C(NO)C1(S(=O)(=O)c2ccc(Oc3ccc(C(F)(F)F)cc3)cc2)CCN(c2ccccn2)CC1 [Example 395]	> 10000	0.5	0.9	–	–	–
COc1ccccc1COC1CCC(Oc2ccc(S(=O)(=O)C3(C(=O)NO)CCOCC3)cc2)C1 (stereo not drawn) [Example 741]	> 10000	125	50	–	–	–
O=C(c1ncc[nH]1)N1CCC(C(=O)NO)(S(=O)(=O)c2ccc(Oc3ccc(OC(F)(F)F)cc3)cc2)CC1 [Example 379]	> 10000	0.1	0.3	–	–	–
O=C(NO)C1(S(=O)(=O)c2ccc(N3CCC(Oc4ccc(Br)cc4)CC3)cc2)CCOCC1 [Example 479]	> 10000	60	5	–	–	–
O=C(Nc1cccnc1)OC1CCN(c2ccc(S(=O)(=O)C3(C(=O)NO)CCOCC3)cc2)CC1 [Example 465]	> 10000	370	80	–	–	–
O=C(Nc1ccc(Oc2ccccc2)cc1)OC1CCN(c2ccc(S(=O)(=O)C3(C(=O)NO)CCOCC3)cc2)CC1 [Example 519]	> 10000	1300	45.4	–	–	–
CCOC1CCCN(c2ccc(S(=O)(=O)C3(C(=O)NO)CCOCC3)cc2)C1 (stereo not drawn) [Example 562]	> 10000	6300	1200	–	–	–
C[C@@H]1C[C@H](C)CN(C(=O)C2CCN(c3ccc(S(=O)(=O)C4(C(=O)NO)CCN(C(=O)CCl)CC4)cc3)CC2)C1 [Example 276]	> 10000	> 10000	37.3	–	–	–
O=C(NO)C1(S(=O)(=O)c2ccc(Oc3ccc(OC(F)(F)F)cc3)cc2)CCN(S(=O)(=O)Cc2ccccc2)CC1 [Example 195]	> 10000	0.2	1	–	–	–
CC1CC(C)CN(C(=O)C2CCN(c3ccc(S(=O)(=O)C4(C(=O)NO)CCOCC4)cc3)CC2)C1 (stereo not drawn) [Example 54]	> 10000	5700	40	–	–	–
CN(C)c1ccc(C(=O)C2CCN(c3ccc(S(=O)(=O)C4(C(=O)NO)CCOCC4)cc3)CC2)cc1 [Example 784]	> 10000	4500	6	–	–	–
CC1CC(C)CN(C(=O)C2CCN(c3ccc(S(=O)(=O)C4(C(=O)NO)CCN(C(=O)CN5CCNCC5)CC4)cc3)CC2)C1 (stereo not drawn) [Example 290]	> 10000	> 10000	50	–	–	–
O=C(NO)C1(S(=O)(=O)c2ccc(N3CCC(Oc4ccc(Cl)cc4)CC3)cc2)CCOCC1 [Example 615]	> 10000	11	3.1	–	–	–
COc1ccc(S(=O)(=O)N2CCN(c3ccc(S(=O)(=O)C4(C(=O)NO)CCOCC4)cc3)CC2)cc1OC [Example 683]	> 10000	290	11.3	–	–	–
O=C(NO)C1(S(=O)(=O)c2ccc(N3CCC(CCOCc4ccc(F)cc4)CC3)cc2)CCOCC1 [Example 500]	> 10000	22	3	–	–	–
O=C(NO)C1(S(=O)(=O)c2ccc(OC3CCC(OCc4ccccc4Cl)C3)cc2)CCOCC1 (stereo not drawn) [Example 688]	> 10000	110	17.6	–	–	–
C[C@H]1C[C@H](C)CN(C(=O)C2CCN(c3ccc(S(=O)(=O)C4(C(=O)NO)CCN(C(=O)OC(C)(C)C)CC4)cc3)CC2)C1 (relative stereo) [Example 239, rel-1,1-Dimethylethyl 4-[[4-[4-[[(3R,5R)-3,5-Dimethyl-1-piperidinyl]carbonyl]-1-piperidinyl]-phenyl]sulfonyl]-4-[(hydroxyamino)carbonyl]-1-piperidinecarboxylate]	–	–	–	> 10000	8300	9
O=C(NO)C1(S(=O)(=O)c2ccc(N3CCC(OCc4ccc(F)cc4F)CC3)cc2)CCOCC1 [Example 558]	> 10000	66.4	4.5	–	–	–
O=C(NO)C1(S(=O)(=O)c2ccc(OC3CCC(OCc4ccccc4Cl)C3)cc2)CCOCC1 (stereo not drawn) [Example 665]	> 10000	29.2	2.3	–	–	–

SMILES	IC50 (MMP-1; [1]) [nM]	IC50 (MMP-2; [2]) [nM]	IC50 (MMP-13; [3]) [nM]	IC50 (MMP-1) [nM]	IC50 (MMP-2) [nM]	IC50 (MMP-13) [nM]
CC1CC(C)CN(C(=O)C2CCN(c3ccc(S(=O)(=O)C4(C(=O)NO)CCN(C(=O)CNCCO)CC4)cc3)CC2)C1 (stereo not drawn) [Example 286]	> 10000	> 10000	60	–	–	–
CC1CC(C)CN(C(=O)C2CCN(c3ccc(S(=O)(=O)C4(C(=O)NO)CCN(C(=O)OCC5c6ccccc6-c6ccccc65)CC4)cc3)CC2)C1 (stereo not drawn) [Example 274]	–	–	–	> 10000	> 10000	160
CCCC(=O)C1CCN(c2ccc(S(=O)(=O)C3(C(=O)NO)CCOCC3)cc2)CC1 [Example 799]	> 10000	43.5	10.6	–	–	–
O=C(NO)C1(S(=O)(=O)c2ccc(OC3CN(S(=O)(=O)Cc4ccccc4)C3)cc2)CCOCC1 [Example 850]	> 10000	150	4.5	–	–	–
CC1CC(C)CN(C(=O)C2CCN(c3ccc(S(=O)(=O)C4(C(=O)NO)CCN(C(=O)CN(CCCN(C)C)CCCN(C)C)CC4)cc3)CC2)C1 (stereo not drawn) [Example 302]	> 10000	> 10000	175	–	–	–
O=C(CCCCNCc1ccncc1)N1CCC(C(=O)NO)(S(=O)(=O)c2ccc(Oc3ccc(C(F)(F)F)cc3)cc2)CC1 [Example 340]	> 10000	< 0.1	0.3	–	–	–
O=C(C1CCN(c2ccc(S(=O)(=O)C3(C(=O)NO)CCOCC3)cc2)CC1)N1CCN(c2ncc(C(F)(F)F)cc2Cl)CC1 [Example 41]	–	–	–	> 10000	5400	70
O=C(Nc1ccc(Cl)c(Cl)c1)N1CCC(C(=O)NO)(S(=O)(=O)c2ccc(Oc3ccc(OC(F)(F)F)cc3)cc2)CC1 [Example 359]	> 10000	12.2	34.9	–	–	–
Cc1cccc(C(=O)C2CCN(c3ccc(S(=O)(=O)C4(C(=O)NO)CCOCC4)cc3)CC2)c1 [Example 653]	> 10000	160	0.8	–	–	–
O=C(NO)C1(S(=O)(=O)c2ccc(Oc3ccc(C(F)(F)F)cc3)cc2)CCN(S(=O)(=O)c2ccc(C(F)(F)F)cc2)CC1 [Example 143]	> 10000	14.5	22	–	–	–
O=C(NO)C1(S(=O)(=O)c2ccc(N3CCC(OCc4ccc(COCC(F)(F)C(F)F)cc4)CC3)cc2)CCOCC1 [Example 608]	> 10000	250	3	–	–	–
COCCN1CCC(C(=O)NO)(S(=O)(=O)c2ccc(N3CCC(C(=O)Nc4ccc(OC(F)(F)F)cc4)CC3)cc2)CC1 [Example 248, N-Hydroxy-1-(2-methoxyethyl)-4-[[4-[4-[[[4-(trifluoromethoxy)phenyl]amino]carbonyl]-1-piperidinyl]-phenyl]sulfonyl]-4-piperidinecarboxamide, Monohydrochloride]	> 10000	270	2.29	–	–	–
N#Cc1ccc(OC2CCN(c3ccc(S(=O)(=O)C4(C(=O)NO)CCOCC4)cc3)CC2)cc1 [Example 469]	> 10000	12	0.8	–	–	–
O=C(NO)C1(S(=O)(=O)c2ccc(N3CCC(CCOCc4ccc(Cl)c(Cl)c4)CC3)cc2)CCOCC1 [Example 502]	> 10000	63	14	–	–	–
CC1CC(C)CN(C(=O)C2CCN(c3ccc(S(=O)(=O)C4(C(=O)NO)CCN(C(=O)CN(C)C)CC4)cc3)CC2)C1 (stereo not drawn) [Example 294]	> 1000	> 10000	59.1	–	–	–
CN(CCc1ccccc1)C1CCN(c2ccc(S(=O)(=O)C3(C(=O)NO)CCOCC3)cc2)CC1 [Example 584]	> 10000	3500	2700	–	–	–
O=C(NO)C1(S(=O)(=O)c2ccc(N3CCC(OCc4ccc(F)cc4)CC3)cc2)CCN(C2CC2)CC1 [Example 397]	> 10000	70	4.4	–	–	–
O=C(NO)C1(S(=O)(=O)c2ccc(N3CCc4ccccc4C3)cc2)CCN(C2CC2)CC1 [Example 455]	> 10000	26.8	6.3	–	–	–
